Test results taken from US12358932B2, “Chemical compounds” (BORAH, INC., priority 2019, dated 2025).

Columns and labels:
[1] = tested on: JAK; assay: Biochemical Kinase Assay Protocol (JAK); details: for Activity Note: JAK: compound list, + = noted target activity, number of * = preference; for JAK activity: compared to compounds of the disclosure
Procedure: Biochemical Kinase Assay Protocol (JAK, TrkA, Syk, Tyk2)
Reagent: Base Reaction buffer; 20 mM Hepes (pH 7.5), 10 mM MgCl2, 1 mM EGTA, 0.02% Brij™ 35, 0.02 mg/ml BSA, 0.1 mM Na3VO4, 2 mM DTT, 1% DMSO, where required cofactors are added individually to each kinase reaction.
• 1. Prepare indicated substrate in freshly prepared Base Reaction Buffer • 2. Deliver any required cofactors to the substrate solution above • 3. Deliver indicated kinase (JAK or TrkA) into the substrate solution and gently mix • 4. Deliver compounds in DMSO into the kinase reaction mixture by Acoustic technology (Echo550; nanoliter range), incubate for 20 minutes at room temperature • 5. Deliver 33P-ATP into the reaction mixture to initiate the reaction. • 6. Incubate kinase reaction for 2 hours at room temperature • 7. Reactions are spotted onto P81 ion exchange paper • 8. Detect kinase activity by filter-binding method. PDE4B Phosphodiesterase Assay

[2] = target: T1, Recombinant human PDE4B (Homo sapiens, UniProt Q07343); assay: PDE4B Phosphodiesterase Assay; format: biochemical; details: compared to compounds of the disclosure
T1 construct: aa 305-end; GST (N); made in house; host or cells: Sf9 insect cells (baculovirus)
T1 sequence (Q07343 305-736 limits assumed): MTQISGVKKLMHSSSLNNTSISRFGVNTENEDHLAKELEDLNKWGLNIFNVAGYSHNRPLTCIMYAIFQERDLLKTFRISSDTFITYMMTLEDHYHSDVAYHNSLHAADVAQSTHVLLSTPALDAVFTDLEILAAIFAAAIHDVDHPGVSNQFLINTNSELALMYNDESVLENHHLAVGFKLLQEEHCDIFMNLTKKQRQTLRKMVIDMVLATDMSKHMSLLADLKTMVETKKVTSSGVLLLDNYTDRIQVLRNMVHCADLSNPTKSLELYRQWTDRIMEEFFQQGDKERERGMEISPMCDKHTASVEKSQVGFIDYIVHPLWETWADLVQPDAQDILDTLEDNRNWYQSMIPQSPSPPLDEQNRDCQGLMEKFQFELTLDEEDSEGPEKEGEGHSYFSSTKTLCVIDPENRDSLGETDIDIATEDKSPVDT
Procedure: The assay is based on the fluorescence polarization measuring AMP/GMP production as a result of the enzyme activity by displacement of Tracer binding to the AMP/GMP antibody. • Reaction Buffer: 10 mM Tris-HCl, pH 7.5, 5 mM MgCl2, 0.01% Brij 35, 1 mM DTT and 1% DMSO. • Enzyme: Recombinant human PDE4B (Gene Accession #NM_002600; aa 305-end) was expressed by baculovirus in Sf9 insect cells using an N-terminal GST tag. Mw=78 kDa. • Substrate: 1 μM cAMP • Detection: Transcreener® AMP2/GMP2 Antibody AMP2/GMP2 AlexaFluor 633 Tracer Reaction Procedure: • 1. Prepared indicated enzyme and substrate in freshly prepared Reaction Buffer • 2. Delivered enzyme solution into the reaction well • 3. Delivered compounds in 100% DMSO into the enzyme solution by Acoustic technology (Echo550; nanoliter range), incubated for 10 min at room temperature • 4. Delivered substrate solution into the reaction well to initiate the reaction • 5. Incubated for 1 h at room temperature • 6. Added detection mixture (Tracer and antibody in the stop buffer) to stop the reaction and incubated for 90 min with gentle mixing. The fluorescence polarization was measured at Ex/Em 620/688.
Data Analysis: The FP signals were converted into nM product based on an AMP/GMP standard curve and calculated % Enzyme activity relative to DMSO control by Excel. The curve fit was performed using GraphPad prism.

| SMILES | Activity Note: JAK [1] | PDE4 activity [2] | JAK activity [1] |
| --- | --- | --- | --- |
| CCC(CC)Nc1nc(Nc2cc(C)c3c(c2)COB3O)ncc1C [7-methyl-5-((5-methyl-4-(pentan-3-ylamino)pyrimidin-2-yl)amino)benzo[c][1,2]oxaborol-1(3H)-ol] | JAK+*** | – | – |
| Cc1cnc(N(C)c2ccc3c(c2)COB3O)nc1OC1CCCCC1 [A, 5-((4-(cyclohexyloxy)-5-methylpyrimidin-2-yl)(methyl)amino)benzo[c][1,2]oxaborol-1(3H)-ol, reference compound] | – | diminish in PDE4 activity | no JAK activity or significantly decreased JAK activity |
| CCc1cc(N(c2ncc(C)c(NC(CC)CC)n2)S(=O)(=O)C(F)(F)F)cc2c1B(O)OC2 [N-(7-ethyl-1-hydroxy-1,3-dihydrobenzo[c][1,2]oxaborol-5-yl)-1,1,1-trifluoro-N-(5-methyl-4-(pentan-3-ylamino)pyrimidin-2-yl)methanesulfonamide] | JAK+* | – | – |

Second part, led by results:

| Activity Note: JAK [1] | PDE4 activity [2] | SMILES | JAK activity [1] |
| --- | --- | --- | --- |
| JAK+** | – | COc1cc(Nc2ncc(C)c(SC)n2)cc2c1B(O)OC2 [7-methoxy-5-((5-methyl-4-(methylthio)pyrimidin-2-yl)amino)benzo[c][1,2]oxaborol-1(3H)-ol] | – |
| JAK+*** | – | Cc1cnc(Nc2cc(C)c3c(c2)COB3O)nc1Nc1ccccc1 [7-methyl-5-((5-methyl-4-(phenylamino)pyrimidin-2-yl)amino)benzo[c][1,2]oxaborol-1(3H)-ol] | – |
| JAK+* | – | Cc1cnc(Nc2ccc3c(c2C)B(O)OC3)nc1Nc1cccc(S(C)(=O)=O)c1 [7-methyl-6-((5-methyl-4-((3-(methylsulfonyl)phenyl)amino)pyrimidin-2-yl)amino)benzo[c][1,2]oxaborol-1(3H)-ol] | – |
| – | diminish in PDE4 activity | Cc1cnc(N(C)c2ccc3c(c2)COB3O)nc1NC1CCCC1 [B, 5-((4-(cyclopentylamino)-5-methylpyrimidin-2-yl)(methyl)amino)benzo[c][1,2]oxaborol-1(3H)-ol, reference compound] | no JAK activity or significantly decreased JAK activity |
